# According to the kinase profiling compilation of Christmann-Franck et al. (2016):
# Where “and” joins values, the source holds several entries; their conditions need not be identical. Equal values may be shown once.
# Assays:
# Assay in all cases: radiometric filter-binding kinase assay, Kinase HotSpot
# Conditions in all cases: compound 0.5 µM; ATP 10 µM
# STK3 (human) = STK3 (human) (UniProt Q13188)
# NTRK1 (human) = NTRK1 (human) (UniProt P04629)
# IRAK1 (human) = IRAK1 (human) (UniProt P51617)
# DYRK1A (human) = DYRK1A (human) (UniProt Q13627)
# BRSK1 (human) = BRSK1 (human) (UniProt Q8TDC3)
# PDGFRA (human) = PDGFRA (human) (UniProt P16234)
# NEK1 (human) = NEK1 (human) (UniProt Q96PY6)
# Sequence of NEK1 (human) (Q96PY6 whole entry, looked up): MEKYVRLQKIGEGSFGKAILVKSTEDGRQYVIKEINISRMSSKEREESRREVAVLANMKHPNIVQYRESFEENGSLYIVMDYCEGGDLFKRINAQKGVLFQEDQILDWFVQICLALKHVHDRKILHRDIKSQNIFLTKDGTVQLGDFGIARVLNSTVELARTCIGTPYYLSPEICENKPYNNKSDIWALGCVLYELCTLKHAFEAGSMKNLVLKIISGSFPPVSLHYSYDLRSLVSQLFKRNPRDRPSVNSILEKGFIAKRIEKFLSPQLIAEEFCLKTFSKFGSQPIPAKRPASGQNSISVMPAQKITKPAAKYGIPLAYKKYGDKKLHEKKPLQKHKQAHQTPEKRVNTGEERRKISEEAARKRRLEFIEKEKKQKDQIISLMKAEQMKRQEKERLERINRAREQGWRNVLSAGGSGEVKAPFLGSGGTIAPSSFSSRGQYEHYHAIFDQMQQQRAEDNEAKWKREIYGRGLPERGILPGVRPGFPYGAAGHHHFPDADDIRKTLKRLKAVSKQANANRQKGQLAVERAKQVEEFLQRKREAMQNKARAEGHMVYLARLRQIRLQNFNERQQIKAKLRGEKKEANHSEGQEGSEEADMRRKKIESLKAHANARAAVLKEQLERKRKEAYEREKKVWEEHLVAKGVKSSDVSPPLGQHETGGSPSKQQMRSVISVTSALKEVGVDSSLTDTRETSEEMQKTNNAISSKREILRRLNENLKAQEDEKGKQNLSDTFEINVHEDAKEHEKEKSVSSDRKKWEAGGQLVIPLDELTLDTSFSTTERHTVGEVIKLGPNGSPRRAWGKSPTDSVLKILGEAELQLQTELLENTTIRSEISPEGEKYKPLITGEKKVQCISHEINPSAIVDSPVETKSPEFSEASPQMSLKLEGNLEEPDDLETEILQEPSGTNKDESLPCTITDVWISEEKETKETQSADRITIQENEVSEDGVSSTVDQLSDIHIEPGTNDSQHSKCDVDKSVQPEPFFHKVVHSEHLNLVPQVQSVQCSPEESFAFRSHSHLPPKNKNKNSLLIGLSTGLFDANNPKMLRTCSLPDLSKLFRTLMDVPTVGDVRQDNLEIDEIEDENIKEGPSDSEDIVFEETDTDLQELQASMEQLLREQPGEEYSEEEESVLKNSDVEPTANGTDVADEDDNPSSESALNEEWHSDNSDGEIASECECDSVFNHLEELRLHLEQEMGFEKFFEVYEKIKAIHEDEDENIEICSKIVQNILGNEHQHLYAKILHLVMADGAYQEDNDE
# MAP3K11 (human) = MAP3K11 (human) (UniProt Q16584)
# PDPK1 (human) = PDPK1 (human) (UniProt O15530)
# Sequence of PDPK1 (human) (O15530 whole entry, looked up): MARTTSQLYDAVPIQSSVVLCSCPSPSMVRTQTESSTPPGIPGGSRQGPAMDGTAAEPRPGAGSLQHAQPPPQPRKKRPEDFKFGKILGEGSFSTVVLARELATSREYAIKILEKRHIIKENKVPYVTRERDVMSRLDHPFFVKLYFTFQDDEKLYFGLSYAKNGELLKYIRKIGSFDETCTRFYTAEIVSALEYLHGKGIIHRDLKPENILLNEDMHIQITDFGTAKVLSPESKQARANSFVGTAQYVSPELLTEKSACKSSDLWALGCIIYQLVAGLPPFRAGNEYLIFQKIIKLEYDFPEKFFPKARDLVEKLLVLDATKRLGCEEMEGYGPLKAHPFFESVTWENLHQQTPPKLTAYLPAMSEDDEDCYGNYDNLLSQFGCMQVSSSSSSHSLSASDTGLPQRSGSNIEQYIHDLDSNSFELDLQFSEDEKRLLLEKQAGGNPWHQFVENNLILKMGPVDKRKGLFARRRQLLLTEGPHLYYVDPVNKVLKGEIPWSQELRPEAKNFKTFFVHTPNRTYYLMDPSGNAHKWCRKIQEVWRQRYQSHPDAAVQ
# BRSK2 (human) = BRSK2 (human) (UniProt Q8IWQ3)
# EPHB2 (human) = EPHB2 (human) (UniProt P29323)
# Sequence of EPHB2 (human) (P29323 whole entry, looked up): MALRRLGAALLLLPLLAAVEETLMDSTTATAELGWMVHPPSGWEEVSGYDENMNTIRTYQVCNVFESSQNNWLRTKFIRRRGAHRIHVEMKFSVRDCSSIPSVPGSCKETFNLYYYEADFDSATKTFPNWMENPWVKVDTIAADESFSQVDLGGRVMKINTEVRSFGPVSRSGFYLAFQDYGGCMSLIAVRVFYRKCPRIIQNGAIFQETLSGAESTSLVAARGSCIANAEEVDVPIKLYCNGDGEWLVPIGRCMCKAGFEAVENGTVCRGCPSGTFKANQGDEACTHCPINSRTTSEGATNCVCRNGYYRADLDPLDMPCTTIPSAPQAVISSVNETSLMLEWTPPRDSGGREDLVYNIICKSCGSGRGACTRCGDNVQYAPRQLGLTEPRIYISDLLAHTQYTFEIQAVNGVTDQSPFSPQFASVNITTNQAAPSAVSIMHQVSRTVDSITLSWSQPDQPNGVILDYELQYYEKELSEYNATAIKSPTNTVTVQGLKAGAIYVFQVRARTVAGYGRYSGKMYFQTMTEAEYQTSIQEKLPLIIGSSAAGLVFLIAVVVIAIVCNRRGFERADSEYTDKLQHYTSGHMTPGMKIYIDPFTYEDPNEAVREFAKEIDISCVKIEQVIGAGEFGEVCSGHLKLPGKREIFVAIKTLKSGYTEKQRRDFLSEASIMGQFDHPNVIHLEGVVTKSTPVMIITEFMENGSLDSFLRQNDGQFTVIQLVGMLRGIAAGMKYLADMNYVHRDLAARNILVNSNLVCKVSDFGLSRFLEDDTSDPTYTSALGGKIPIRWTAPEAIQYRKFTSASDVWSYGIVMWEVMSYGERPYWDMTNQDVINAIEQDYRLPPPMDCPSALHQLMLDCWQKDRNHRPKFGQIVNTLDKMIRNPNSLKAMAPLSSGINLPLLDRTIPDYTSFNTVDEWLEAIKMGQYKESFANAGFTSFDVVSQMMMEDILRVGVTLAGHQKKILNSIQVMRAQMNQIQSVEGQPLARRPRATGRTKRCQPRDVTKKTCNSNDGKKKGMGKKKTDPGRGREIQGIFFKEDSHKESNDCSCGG
# CDK3 CCNE1 (human) = CDK3 CCNE1 (human) (UniProt Q00526+P24864)
# LRRK2 (human) = LRRK2 (human) (UniProt Q5S007)
# WNK3 (human) = WNK3 (human) (UniProt Q9BYP7)
# AKT1 (human) = AKT1 (human) (UniProt P31749)
# MAPK14 (human) = MAPK14 (human) (UniProt Q16539)
# RPS6KA5 KD2 (human) = RPS6KA5 KD2 (human) (UniProt O75582)
# Sequence of RPS6KA5 KD2 (human) (O75582 whole entry, looked up): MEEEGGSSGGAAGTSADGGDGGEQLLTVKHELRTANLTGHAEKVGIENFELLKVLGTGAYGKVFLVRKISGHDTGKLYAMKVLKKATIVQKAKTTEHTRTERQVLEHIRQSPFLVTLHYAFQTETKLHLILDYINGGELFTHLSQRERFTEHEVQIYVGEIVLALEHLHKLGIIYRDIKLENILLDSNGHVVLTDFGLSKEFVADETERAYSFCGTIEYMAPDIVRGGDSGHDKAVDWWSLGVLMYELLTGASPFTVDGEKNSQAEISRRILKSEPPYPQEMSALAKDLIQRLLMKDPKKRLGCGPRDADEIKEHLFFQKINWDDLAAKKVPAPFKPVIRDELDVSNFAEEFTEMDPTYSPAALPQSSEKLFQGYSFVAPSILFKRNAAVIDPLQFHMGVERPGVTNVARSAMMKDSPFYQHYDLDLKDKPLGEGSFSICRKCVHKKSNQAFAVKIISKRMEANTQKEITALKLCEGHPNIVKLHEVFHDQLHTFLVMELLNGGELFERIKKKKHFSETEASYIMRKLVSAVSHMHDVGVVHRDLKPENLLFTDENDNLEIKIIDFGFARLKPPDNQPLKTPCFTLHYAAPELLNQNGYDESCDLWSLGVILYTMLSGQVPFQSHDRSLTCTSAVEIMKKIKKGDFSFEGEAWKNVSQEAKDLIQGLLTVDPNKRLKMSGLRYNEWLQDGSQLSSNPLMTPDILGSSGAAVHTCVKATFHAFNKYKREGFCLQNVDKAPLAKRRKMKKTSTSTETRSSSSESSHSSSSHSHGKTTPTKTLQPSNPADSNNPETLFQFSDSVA
# ACVRL1 (human) = ACVRL1 (human) (UniProt P37023)
# Sequence of ACVRL1 (human) (P37023 whole entry, looked up): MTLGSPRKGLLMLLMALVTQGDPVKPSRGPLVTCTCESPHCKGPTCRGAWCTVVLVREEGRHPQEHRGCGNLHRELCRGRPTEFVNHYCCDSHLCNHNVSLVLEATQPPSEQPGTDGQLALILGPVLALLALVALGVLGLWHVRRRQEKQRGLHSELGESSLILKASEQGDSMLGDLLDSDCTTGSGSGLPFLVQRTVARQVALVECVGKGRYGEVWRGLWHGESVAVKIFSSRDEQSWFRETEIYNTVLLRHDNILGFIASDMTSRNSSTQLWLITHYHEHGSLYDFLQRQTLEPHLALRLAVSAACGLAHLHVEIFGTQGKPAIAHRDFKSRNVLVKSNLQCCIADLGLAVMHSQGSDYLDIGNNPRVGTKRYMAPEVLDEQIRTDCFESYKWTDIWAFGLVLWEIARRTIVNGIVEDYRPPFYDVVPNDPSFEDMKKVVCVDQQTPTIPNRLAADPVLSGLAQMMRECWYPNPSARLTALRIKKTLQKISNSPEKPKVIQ
# PASK (human) = PASK (human) (UniProt Q96RG2)
# CSNK1A1 (human) = CSNK1A1 (human) (UniProt P48729)
# Sequence of CSNK1A1 (human) (P48729 whole entry, looked up): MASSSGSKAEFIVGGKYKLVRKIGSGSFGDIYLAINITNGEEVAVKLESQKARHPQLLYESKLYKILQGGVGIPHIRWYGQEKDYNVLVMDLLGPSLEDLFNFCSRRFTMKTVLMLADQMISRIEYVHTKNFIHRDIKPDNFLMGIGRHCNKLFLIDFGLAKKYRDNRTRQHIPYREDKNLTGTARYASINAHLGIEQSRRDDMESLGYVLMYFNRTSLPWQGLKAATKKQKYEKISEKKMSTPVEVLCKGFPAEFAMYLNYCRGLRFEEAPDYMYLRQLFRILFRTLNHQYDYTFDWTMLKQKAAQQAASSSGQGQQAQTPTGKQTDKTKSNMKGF
# RPS6KB1 (human) = RPS6KB1 (human) (UniProt P23443)
# GSK3B (human) = GSK3B (human) (UniProt P49841)
# CDK6 CCND3 (human) = CDK6 CCND3 (human) (UniProt P30281+Q00534)
# ALK (human) = ALK (human) (UniProt Q9UM73)
# MAP2K2 (human) = MAP2K2 (human) (UniProt P36507)
# LTK (human) = LTK (human) (UniProt P29376)
# PRKD3 (human) = PRKD3 (human) (UniProt O94806)
# EPHA1 (human) = EPHA1 (human) (UniProt P21709)
# EPHB3 (human) = EPHB3 (human) (UniProt P54753)
# DDR2 (human) = DDR2 (human) (UniProt Q16832)
# PKN1 (human) = PKN1 (human) (UniProt Q16512)
# FGFR4 (human) = FGFR4 (human) (UniProt P22455)
# MAP4K4 (human) = MAP4K4 (human) (UniProt O95819)
# BLK (human) = BLK (human) (UniProt P51451)
# CDC42BPA (human) = CDC42BPA (human) (UniProt Q5VT25)
# MARK4 (human) = MARK4 (human) (UniProt Q96L34)
# MAPKAPK5 (human) = MAPKAPK5 (human) (UniProt Q8IW41)
# Sequence of MAPKAPK5 (human) (Q8IW41 whole entry, looked up): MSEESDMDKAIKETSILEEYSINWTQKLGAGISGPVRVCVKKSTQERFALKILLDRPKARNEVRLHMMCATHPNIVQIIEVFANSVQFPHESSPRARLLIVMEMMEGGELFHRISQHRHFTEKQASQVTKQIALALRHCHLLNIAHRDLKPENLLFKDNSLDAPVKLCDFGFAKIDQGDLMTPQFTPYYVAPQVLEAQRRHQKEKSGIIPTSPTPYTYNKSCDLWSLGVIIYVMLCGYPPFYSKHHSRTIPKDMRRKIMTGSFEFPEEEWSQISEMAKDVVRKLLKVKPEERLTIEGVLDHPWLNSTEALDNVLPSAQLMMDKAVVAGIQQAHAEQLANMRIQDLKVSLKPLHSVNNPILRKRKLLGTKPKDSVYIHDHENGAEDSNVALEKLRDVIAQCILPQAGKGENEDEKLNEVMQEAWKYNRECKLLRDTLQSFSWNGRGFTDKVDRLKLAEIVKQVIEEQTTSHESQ
# FYN (human) = FYN (human) (UniProt P06241)
# MAP3K10 (human) = MAP3K10 (human) (UniProt Q02779)
# LYN (human) = LYN (human) (UniProt P07948)
# PIM1 (human) = PIM1 (human) (UniProt P11309)
# PRKG2 (human) = PRKG2 (human) (UniProt Q13237)
compound,measurement,setting,value
O=C(O)/C=C/c1cc(Br)c(Br)c(Br)c1Br,residual activity,STK3 (human),91.4%
same,residual activity,NTRK1 (human),91.1%
same,residual activity,IRAK1 (human),94.4%
same,residual activity,DYRK1A (human),74.8%
same,residual activity,BRSK1 (human),80.5%
same,residual activity,PDGFRA (human),105%
same,residual activity,NEK1 (human),85.4%
same,residual activity,MAP3K11 (human),96.3%
same,residual activity,PDPK1 (human),96.2%
same,residual activity,BRSK2 (human),91.1%
same,residual activity,EPHB2 (human),103%
same,residual activity,CDK3 CCNE1 (human),98.3%
same,residual activity,LRRK2 (human),87.6%
same,residual activity,WNK3 (human),89.8%
same,residual activity,AKT1 (human),97.4%
same,residual activity,MAPK14 (human),99.5%
same,residual activity,RPS6KA5 KD2 (human),88.3%
same,residual activity,ACVRL1 (human),103%
same,residual activity,PASK (human),24.8%
same,residual activity,CSNK1A1 (human),79.3%
same,residual activity,RPS6KB1 (human),91.4%
same,residual activity,GSK3B (human),105%
same,residual activity,CDK6 CCND3 (human),102%
same,residual activity,ALK (human),98.6%
same,residual activity,MAP2K2 (human),103%
same,residual activity,LTK (human),94.5%
same,residual activity,PRKD3 (human),87.9%
same,residual activity,EPHA1 (human),94.6%
same,residual activity,EPHB3 (human),89.8%
same,residual activity,DDR2 (human),94.3%
same,residual activity,PKN1 (human),85.5%
same,residual activity,FGFR4 (human),88.3%
same,residual activity,MAP4K4 (human),63.5%
same,residual activity,BLK (human),95.1%
same,residual activity,CDC42BPA (human),98.5%
same,residual activity,MARK4 (human),93.1%
same,residual activity,MAPKAPK5 (human),72.6%
same,residual activity,FYN (human),97.9%
same,residual activity,MAP3K10 (human),92.3%
same,residual activity,LYN (human),102% and 99.3%
same,residual activity,PIM1 (human),16.2%
same,residual activity,PRKG2 (human),80.3%
Oc1ccc(Nc2nc(-c3ccc(Cl)cc3)cs2)cc1,residual activity,STK3 (human),114%
same,residual activity,NTRK1 (human),104%
same,residual activity,IRAK1 (human),123%
same,residual activity,DYRK1A (human),96.6%
same,residual activity,BRSK1 (human),102%
same,residual activity,PDGFRA (human),101%
same,residual activity,NEK1 (human),104%
same,residual activity,MAP3K11 (human),95.3%
same,residual activity,PDPK1 (human),101%
same,residual activity,BRSK2 (human),101%
same,residual activity,EPHB2 (human),101%
same,residual activity,CDK3 CCNE1 (human),99%
same,residual activity,LRRK2 (human),98.7%
same,residual activity,WNK3 (human),98.7%
same,residual activity,AKT1 (human),106%
same,residual activity,MAPK14 (human),98.6%
same,residual activity,RPS6KA5 KD2 (human),109%
same,residual activity,ACVRL1 (human),103%
same,residual activity,PASK (human),131%
same,residual activity,CSNK1A1 (human),96.4%
same,residual activity,RPS6KB1 (human),104%
same,residual activity,GSK3B (human),110%
same,residual activity,CDK6 CCND3 (human),109%
same,residual activity,ALK (human),111%
same,residual activity,MAP2K2 (human),109%
same,residual activity,LTK (human),104%
same,residual activity,PRKD3 (human),97.7%
same,residual activity,EPHA1 (human),92.6%
same,residual activity,EPHB3 (human),103%
same,residual activity,DDR2 (human),94.1%
same,residual activity,PKN1 (human),99.5%
same,residual activity,FGFR4 (human),71.6%
same,residual activity,MAP4K4 (human),88.9%
same,residual activity,BLK (human),100%
same,residual activity,CDC42BPA (human),87.1%
same,residual activity,MARK4 (human),103%
same,residual activity,MAPKAPK5 (human),96.8%
same,residual activity,FYN (human),102%
same,residual activity,MAP3K10 (human),100%
same,residual activity,LYN (human),100%
same,residual activity,PIM1 (human),103%
same,residual activity,PRKG2 (human),92.9%
O=C(Nc1cccc(Nc2cc(Nc3cccc(C(F)(F)F)c3)ncn2)c1)C1CC1,residual activity,STK3 (human),102%
same,residual activity,NTRK1 (human),99.6%
same,residual activity,IRAK1 (human),111%
same,residual activity,DYRK1A (human),104%
same,residual activity,BRSK1 (human),101%
same,residual activity,PDGFRA (human),86.4%
same,residual activity,NEK1 (human),109%
same,residual activity,MAP3K11 (human),97.7%
same,residual activity,PDPK1 (human),100%
same,residual activity,BRSK2 (human),95.8%
same,residual activity,EPHB2 (human),88.6%
same,residual activity,CDK3 CCNE1 (human),94.8%
same,residual activity,LRRK2 (human),95.6%
same,residual activity,WNK3 (human),100%
same,residual activity,AKT1 (human),102%
same,residual activity,MAPK14 (human),98.2%
same,residual activity,RPS6KA5 KD2 (human),103%
same,residual activity,ACVRL1 (human),114%
same,residual activity,PASK (human),98.3%
same,residual activity,CSNK1A1 (human),102%
same,residual activity,RPS6KB1 (human),98%
same,residual activity,GSK3B (human),114%
same,residual activity,CDK6 CCND3 (human),102%
same,residual activity,ALK (human),112%
same,residual activity,MAP2K2 (human),101%
same,residual activity,LTK (human),96.8%
same,residual activity,PRKD3 (human),96.9%
same,residual activity,EPHA1 (human),92.9%
same,residual activity,EPHB3 (human),87.9%
same,residual activity,DDR2 (human),106%
same,residual activity,PKN1 (human),98.9%
same,residual activity,FGFR4 (human),102%
same,residual activity,MAP4K4 (human),102%
same,residual activity,BLK (human),101%
same,residual activity,CDC42BPA (human),77.7%
same,residual activity,MARK4 (human),101%
same,residual activity,MAPKAPK5 (human),101%
same,residual activity,FYN (human),100%
same,residual activity,MAP3K10 (human),101%
same,residual activity,LYN (human),102% and 99.1%
same,residual activity,PIM1 (human),104%
same,residual activity,PRKG2 (human),103%
